Where two headings read alike, the source gives them in different places.

In series [1] the target is T1, mineralocorticoid receptor (Homo sapiens, UniProt P08235).
T1 sequence (P08235 1-984): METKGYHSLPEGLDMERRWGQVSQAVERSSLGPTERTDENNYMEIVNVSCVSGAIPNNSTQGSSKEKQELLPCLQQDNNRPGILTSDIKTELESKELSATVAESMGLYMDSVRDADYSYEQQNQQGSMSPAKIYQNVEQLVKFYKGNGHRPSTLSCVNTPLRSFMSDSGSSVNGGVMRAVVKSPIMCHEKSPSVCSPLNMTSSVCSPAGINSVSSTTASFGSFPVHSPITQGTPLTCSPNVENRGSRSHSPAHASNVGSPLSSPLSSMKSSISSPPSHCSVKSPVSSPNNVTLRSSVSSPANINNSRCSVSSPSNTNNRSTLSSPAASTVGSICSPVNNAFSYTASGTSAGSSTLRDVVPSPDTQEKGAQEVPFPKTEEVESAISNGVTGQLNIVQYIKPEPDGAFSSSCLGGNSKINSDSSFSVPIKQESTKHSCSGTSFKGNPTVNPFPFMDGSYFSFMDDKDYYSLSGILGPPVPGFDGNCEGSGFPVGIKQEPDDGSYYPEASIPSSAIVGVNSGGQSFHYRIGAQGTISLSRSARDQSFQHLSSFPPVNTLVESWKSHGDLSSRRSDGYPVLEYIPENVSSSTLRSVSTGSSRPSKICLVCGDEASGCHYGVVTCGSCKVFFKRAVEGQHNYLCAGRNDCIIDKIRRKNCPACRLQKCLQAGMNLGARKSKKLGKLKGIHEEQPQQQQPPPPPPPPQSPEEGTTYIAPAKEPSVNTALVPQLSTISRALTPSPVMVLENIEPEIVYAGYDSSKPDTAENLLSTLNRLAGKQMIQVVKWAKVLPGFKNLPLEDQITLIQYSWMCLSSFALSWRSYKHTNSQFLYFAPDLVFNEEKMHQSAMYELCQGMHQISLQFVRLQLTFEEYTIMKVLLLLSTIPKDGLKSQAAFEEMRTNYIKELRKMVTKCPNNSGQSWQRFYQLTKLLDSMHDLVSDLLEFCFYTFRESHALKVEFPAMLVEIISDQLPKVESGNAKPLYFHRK
Particulars: background statement; cited from earlier work.

The test system of another series is DMD subjects. Particulars: cited from earlier work.
Series [2] concerns DMD participants. Conditions: cited from earlier work.
The subject of series [3] is ambulant boys with DMD. Particulars: male, human, in vivo, 24 weeks.
Series [4] has as its system ambulant boys with DMD. Description: VBP15-004 adverse events and behavior AESIs. Particulars: PDN 0.75 mg, N = 31, 24 weeks.
The subject of series [5] is ambulant boys with DMD. Description: VBP15-004 growth (height Z score). Particulars: prednisone 0.75 mg/kg/day. The series is classed as in vivo, human.
Series [6] concerns DMD participants. Briefly: Prespecified safety evaluation: height percentile for age and BMI z-score. The format is in vivo, human. Conditions: for Mean BMI z-score, change from baseline (SD): 0.75 mg/kg/day. On the procedure:
As with the […] comparators, group-matching criteria were prespecified in the iSAP, and 2 independent statisticians carried out the participant matching. […] There was no corresponding 12-month assessment in vamorolone-treated participants. (Assessments of vamorolone-treated trial participants were 0, 3, 6, and 18 months). Standing height and weight were assessed at each study visit. Height z-score, body mass index (BMI: kg/m^2), and BMI z-score were calculated centrally. AE reporting was done per protocol in the vamorolone trials. The current study is the first to evaluate the longer-term tolerability, efficacy, and safety of vamorolone in DMD. […] Given the variable timing of dose escalations, it was prespecified that initial analyses of drug-related efficacy and safety would be limited to those participants who had 18 months of treatment with 2.0 mg/kg/day vamorolone or more (dose group C+dose group D: n=23). Outcomes for these participants were compared to a group-matched cohort from the […] over 18 months (corticosteroid-naïve, n=19: corticosteroid-treated, n=68). Participants were matched for age and treatment period (+1 month), matching criteria were prespecified in the statistical analysis plan. Two independent statisticians carried out the matching. […] Participants in the corticosteroid-treated […] group were treated for at least 18 months, but the total duration, dose, and regimens varied. Statistical analyses were done on paired longitudinal outcome data using an analysis of covariance (ANCOVA) approach with change from baseline (VBP15-002) to month 18 (midpoint of VBP15-LTE). Baseline response and age were included as covariates. For the vamorolone-treated participants, age was calculated as (date of informed consent minus birthdate)/365.25. For the DNHS participants, age was calculated as (date of baseline visit used minus birthdate)/365.25. The baseline visit for a DNHS participant was the first visit. […] Timed function tests were analyzed as velocity scores to limit the impact of participants who could not perform the test (velocity=0). Velocity measures are variance-stabilizing transformations, suppressing extreme raw outliers from raw values in seconds; these help with distributional assumptions of the statistical models/tests used. Raw data (seconds) are also reported. Velocity scores for […] (event/second), TTRW (meters/second), and […] (event/second) were inputted as 0 at the first response missing due to inability to perform the test. All other data were observed values only, without imputation. No adjustments for multiplicity on inferential statistics were specified in the iSAP.

Where [7] appears, read: CINRG DNHS, deflazacort n = 94, prednisone n = 80.
Setting [8] is: Griggs et al. 2016, 12-month trial, 0.9 mg/kg/day deflazacort (n = 68), 0.75 mg/kg/day prednisone (n = 63).
Where [9] appears, read: CINRG prednisone trial, daily 0.75 mg/kg/day, 12 months.
Where [10] appears, read: vamorolone 18-month treatment versus prednisone trial 12-month treatment, ANCOVA.

`CC(=O)OCC(=O)[C@@]12N=C(C)O[C@@H]1C[C@H]1[C@@H]3CCC4=CC(=O)C=C[C@]4(C)[C@H]3[C@@H](O)C[C@@]12C` [Deflazacort, deflazacort]: in series [1], the “activity at the mineralocorticoid receptor” value is given as “agonists”. In addition, the “LS Mean change in height percentiles for age” value in the series on DMD subjects (DMD children treated with deflazacort, N = 40, 12 months treatment) was −11.4. In addition, the “change in height percentile over a 12-month treatment period” value with DMD subjects (Griggs et al. 2016, DMD) was −11.43 percentile. Also, in the series with DMD participants [2] (setting [7]), the “Incidence of physician-reported Cushingoid” value is 72%, the “Incidence of physician-reported behavior change” value was 33% and the “Incidence of physician-reported weight gain” value was 63%. Moreover, in the series with DMD participants [2] (setting [8]), the “Incidence of physician-reported Cushingoid” value is reported as 60.3%, the “Incidence of physician-reported behavior change” value is given as 9%, the “Incidence of physician-reported hypertrichosis/hirsutism” value is given as 35% and the “Incidence of physician-reported weight gain” value was 27.9%.

Take `C[C@]12C=CC(=O)C=C1CC[C@@H]1[C@@H]2C(=O)C[C@@]2(C)[C@H]1CC[C@]2(O)C(=O)CO` [Prednisone, prednisone, reference compound]: in the series with ambulant boys with DMD [3], the “clinically relevant psychiatric events, subjects” value amounted to 19.4%; the “incidence of behavior problems” value is recorded as 32.3%; the “moderate/severe behavior problems, subjects” value was determined as 22.6%. In series [1], the “activity at the mineralocorticoid receptor” value is “agonists”. Besides, the “Any Behavior AESI, moderate/severe: F (AE count)” value with ambulant boys with DMD [4] is recorded as 8. In addition, in the series with ambulant boys with DMD [5], the “change in height Z scores from baseline to Week 24” value was “growth deceleration”. Also, in the series with DMD participants [6] (setting [9]), the “Mean BMI z-score, value (SD) at 12 months of treatment” value is recorded as 1.068 (1.05); the “Mean height percentile for age, change from baseline (SD)” value is recorded as −3.76 (10.44); the “Mean height percentile for age, value (SD) at 12 months of treatment” value was 26.14 (24.21); the “Mean BMI z-score, change from baseline (SD)” value is on record as 0.459 (0.407). Moreover, the “Mean BMI z-score, change from baseline (SD)” value with DMD participants [6] (CINRG prednisone trial, daily 0.75 mg/kg/day, 12 months, listed as prednisone) is 0.46. Besides, in the series on DMD participants [6] (setting [10]), the “Mean BMI z-score, LS mean difference (SE)” value was 0.066 (0.193) and the “Mean height percentile for age, LS mean difference (SE)” value is 10.37 (3.86).

Source of the values: US20240226117A1, “TREATMENT OF CONGENITAL ADRENAL HYPOPLASIA” (ReveraGen BioPharma, Inc., priority 2021, published 2024).
